The source made the active and inactive calls.
Experiments:
[1] = target: Tyrosyl-DNA phosphodiesterase 2 (Homo sapiens, UniProt O95551); test: potency against TDP2 phosphodiesterase activity – biochemical, epi absorbance, IC50, dose response (AID 743297)
[2] = non-specific 3'UTR reporter inhibition in Clone20-Shn3RL – cell-based, Renilla luciferase, cherry-picked, counter-screen for Shn3 inhibitor project, dose response (AID 624133); format: functional
[3] = viability loss in HEK293 cells – cell-based, plate reader, cherry-picked samples, cytotoxicity control, dose response (AID 743446); format: functional
[4] = blockers of HIV-1 ZM109 envelope-driven cell-cell fusion – HeLa effector, CEM target cells, luciferase, cherry-pick, dose response (AID 652058); format: functional, cell-based;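 further: luciferase signal from HIV-1 Env mediated cell-cell fusion of effector and target cells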
BJ = test: growth inhibition of engineered Ras-driven BJ cells – cell-based, alamar blue fluorescence, cherrypicked samples, dose response (AID 2631); format: functional; conditions: Homo sapiens;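 further: confirmatory dose-response assay in RAS-dependent BJ fibroblasts engineered with TERT, LT and ST, with cytotoxicity read by fluorescence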
Exodeoxyribonuclease V = target: T1, Exodeoxyribonuclease V (Escherichia coli (strain K12), UniProt P04993+P07648+P08394); test: RecBCD inhibition via phage-restricted bacterial growth – absorbance, V66 E. coli, mutant T4 phage, counter-screen for AddAB inhibitor project, dose response (AID 492957); format: functional, cell-based, Escherichia coli str. K-12 substr. MG1655
T1 sequence (P04993 whole entry): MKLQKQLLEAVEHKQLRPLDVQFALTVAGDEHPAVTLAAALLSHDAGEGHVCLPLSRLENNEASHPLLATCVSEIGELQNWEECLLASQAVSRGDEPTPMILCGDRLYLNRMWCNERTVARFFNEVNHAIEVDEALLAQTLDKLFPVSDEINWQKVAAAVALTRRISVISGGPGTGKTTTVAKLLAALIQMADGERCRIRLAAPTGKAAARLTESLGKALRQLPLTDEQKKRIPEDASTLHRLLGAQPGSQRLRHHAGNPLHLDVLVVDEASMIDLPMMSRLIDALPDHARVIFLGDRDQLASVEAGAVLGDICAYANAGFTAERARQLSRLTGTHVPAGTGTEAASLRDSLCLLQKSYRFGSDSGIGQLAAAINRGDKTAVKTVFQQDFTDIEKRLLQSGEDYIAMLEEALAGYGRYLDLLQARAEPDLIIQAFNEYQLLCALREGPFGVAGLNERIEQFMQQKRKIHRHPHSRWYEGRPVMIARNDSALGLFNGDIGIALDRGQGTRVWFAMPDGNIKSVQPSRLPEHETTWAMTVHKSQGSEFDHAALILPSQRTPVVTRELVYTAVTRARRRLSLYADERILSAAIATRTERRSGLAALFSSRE
T1 sequence (P07648 whole entry): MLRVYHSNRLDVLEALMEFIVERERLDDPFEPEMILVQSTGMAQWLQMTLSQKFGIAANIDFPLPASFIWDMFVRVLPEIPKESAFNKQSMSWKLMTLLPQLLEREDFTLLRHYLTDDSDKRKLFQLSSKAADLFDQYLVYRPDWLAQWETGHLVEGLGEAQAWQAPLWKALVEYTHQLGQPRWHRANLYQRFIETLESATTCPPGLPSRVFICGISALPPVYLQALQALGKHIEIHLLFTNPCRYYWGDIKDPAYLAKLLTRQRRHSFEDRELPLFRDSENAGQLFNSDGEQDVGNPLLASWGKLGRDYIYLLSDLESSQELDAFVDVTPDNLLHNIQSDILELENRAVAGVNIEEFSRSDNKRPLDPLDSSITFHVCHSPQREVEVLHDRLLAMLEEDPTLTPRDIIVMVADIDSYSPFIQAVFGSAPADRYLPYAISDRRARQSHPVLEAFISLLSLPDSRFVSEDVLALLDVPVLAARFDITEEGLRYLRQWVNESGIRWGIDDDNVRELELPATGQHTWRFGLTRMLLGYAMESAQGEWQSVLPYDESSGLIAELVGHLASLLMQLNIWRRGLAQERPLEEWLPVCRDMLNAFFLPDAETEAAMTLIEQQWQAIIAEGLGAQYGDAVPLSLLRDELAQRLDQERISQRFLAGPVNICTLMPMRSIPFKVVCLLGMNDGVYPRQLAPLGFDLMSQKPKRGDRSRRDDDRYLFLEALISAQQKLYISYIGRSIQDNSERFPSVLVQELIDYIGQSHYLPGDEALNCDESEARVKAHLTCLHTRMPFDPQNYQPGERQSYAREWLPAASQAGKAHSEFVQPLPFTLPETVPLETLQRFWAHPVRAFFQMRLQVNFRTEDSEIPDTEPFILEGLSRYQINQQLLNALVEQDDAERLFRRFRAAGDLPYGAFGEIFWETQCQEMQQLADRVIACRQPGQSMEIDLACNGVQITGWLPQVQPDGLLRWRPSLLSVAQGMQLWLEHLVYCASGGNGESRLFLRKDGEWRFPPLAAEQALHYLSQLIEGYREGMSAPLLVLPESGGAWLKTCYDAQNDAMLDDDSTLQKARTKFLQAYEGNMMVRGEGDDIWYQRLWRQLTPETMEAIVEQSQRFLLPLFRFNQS
T1 sequence (P08394 whole entry): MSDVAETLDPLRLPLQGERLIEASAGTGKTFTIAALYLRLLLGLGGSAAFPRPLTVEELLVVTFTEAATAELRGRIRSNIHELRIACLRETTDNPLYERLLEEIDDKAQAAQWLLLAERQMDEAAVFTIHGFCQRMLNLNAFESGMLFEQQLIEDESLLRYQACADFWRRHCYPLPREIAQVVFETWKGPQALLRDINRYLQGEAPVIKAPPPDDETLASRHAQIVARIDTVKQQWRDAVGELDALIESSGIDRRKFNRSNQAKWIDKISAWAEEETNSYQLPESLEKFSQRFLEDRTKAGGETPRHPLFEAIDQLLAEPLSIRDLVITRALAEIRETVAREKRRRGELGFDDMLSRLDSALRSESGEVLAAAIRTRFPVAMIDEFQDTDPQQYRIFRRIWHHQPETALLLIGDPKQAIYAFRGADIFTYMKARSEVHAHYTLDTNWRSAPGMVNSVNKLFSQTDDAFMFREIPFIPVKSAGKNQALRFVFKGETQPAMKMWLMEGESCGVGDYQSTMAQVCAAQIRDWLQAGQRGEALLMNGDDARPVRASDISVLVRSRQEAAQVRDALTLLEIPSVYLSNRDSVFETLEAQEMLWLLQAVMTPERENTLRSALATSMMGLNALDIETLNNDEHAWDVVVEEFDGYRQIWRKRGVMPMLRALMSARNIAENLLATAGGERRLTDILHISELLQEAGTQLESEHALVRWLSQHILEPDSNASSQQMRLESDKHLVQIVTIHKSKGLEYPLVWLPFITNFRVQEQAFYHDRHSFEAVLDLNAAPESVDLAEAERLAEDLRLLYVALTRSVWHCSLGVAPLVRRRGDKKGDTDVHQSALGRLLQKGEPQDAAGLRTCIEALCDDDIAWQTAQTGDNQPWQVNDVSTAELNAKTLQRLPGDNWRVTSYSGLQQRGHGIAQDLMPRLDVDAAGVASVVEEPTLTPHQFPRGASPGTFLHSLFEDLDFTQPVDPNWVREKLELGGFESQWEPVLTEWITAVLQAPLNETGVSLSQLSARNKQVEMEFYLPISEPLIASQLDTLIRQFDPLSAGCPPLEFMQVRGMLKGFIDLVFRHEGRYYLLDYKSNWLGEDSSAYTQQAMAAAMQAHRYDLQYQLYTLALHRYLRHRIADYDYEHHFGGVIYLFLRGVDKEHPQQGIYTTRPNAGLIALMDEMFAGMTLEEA

Sequence of Tyrosyl-DNA phosphodiesterase 2 (O95551 whole entry): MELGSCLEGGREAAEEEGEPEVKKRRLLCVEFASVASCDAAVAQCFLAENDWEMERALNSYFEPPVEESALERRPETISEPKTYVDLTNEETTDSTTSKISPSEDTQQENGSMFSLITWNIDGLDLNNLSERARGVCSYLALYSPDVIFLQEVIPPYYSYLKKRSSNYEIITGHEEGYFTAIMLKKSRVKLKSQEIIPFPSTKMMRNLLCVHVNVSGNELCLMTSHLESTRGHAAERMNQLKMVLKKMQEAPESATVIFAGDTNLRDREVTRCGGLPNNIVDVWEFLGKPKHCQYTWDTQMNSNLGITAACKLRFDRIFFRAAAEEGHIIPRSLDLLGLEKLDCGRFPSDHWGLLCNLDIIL

SMILES: Cn1nc(-c2ccccn2)nc2c(=O)n(C)c(=O)nc1-2
- IC50 [1]: 210 nM (active)
- AC50 [2]: 2960 nM (active)
- AC50 [3]: 21200 nM (active)

SMILES: CCCCCCCCCCn1c2c(c(=N)c3c1CCC3)CCC2
- AC50 [4]: 1700 nM (active)
- EC50 (BJ): 706 nM (active)

SMILES: CCC(=O)NC(c1ccc(OC)cc1)c1cc(Cl)c2cccnc2c1O (stereo unspecified)
- IC50 (Exodeoxyribonuclease V): > 119000 nM (inactive)

From ChEMBL document CHEMBL1201862, “PubChem BioAssay data set” (2004)
